Data taken from patent US8304445B2, “7-pyrazolyl tetracycline compounds and methods of use thereof” (Paratek Pharmaceuticals, Inc., priority 2001, dated 2012).
In brackets after ≈: the same amount, converted by molar mass.

Legend:
Type in all cases: cell-based
Settings in all cases: Mueller-Hinton broth, 37° C., 18 h
[1] = tested on: E. coli ML 308-225; assay: MIC, broth microdilution, E. coli ML 308-225
Protocol: (§1) Growth-inhibitory activity was determined on liquid medium by the antibiotic dilution technique using 96-well microtiter system plates containing two-fold dilutions of antibiotic-agent in 0.2 ml. of Mueller-Hinton broth. Plates were inoculated with each test organism to yield a final inoculum of 5×10^5 CFU/ml and were incubated aerobically at 37° C. for 18 h. The MIC was defined as the lowest concentration of antibacterial agent that inhibited development of visible growth in the microdilution wells.

[2] = tested on: S. pneumoniae 157; assay: MIC, broth microdilution, S. pneumoniae 157
Protocol: as §1

[3] = tested on: H. influenzae ATCC 49247; assay: MIC, broth microdilution, H. influenzae ATCC 49247
Protocol: as §1

[4] = tested on: S. aureus ATCC 29213; assay: MIC, broth microdilution, S. aureus ATCC 29213
Protocol: as §1

[5] = tested on: S. pneumoniae GFX01778 Tet R; assay: MIC, broth microdilution, S. pneumoniae GFX01778 Tet R
Protocol: as §1

[6] = tested on: S. aureus GFX01596 Tet R; assay: MIC, broth microdilution, S. aureus GFX01596 Tet R
Protocol: as §1

[7] = tested on: M. catarrhalis ATCC 23246; assay: MIC, broth microdilution, M. catarrhalis ATCC 23246
Protocol: as §1

Compound	MIC [1]	MIC [2]	MIC [3]	MIC [4]	MIC [5]	MIC [6]	MIC [7]
CN(C)[C@@H]1C(O)=C(C(N)=O)C(=O)[C@@]2(O)C(O)=C3C(=O)c4c(O)ccc(-n5ccc(C=O)c5)c4C[C@H]3C[C@@H]12 [Example 3, [4S-(4aα,5aαα,12aα)]-4-(Dimethylamino)-7-(1H-pyrrol-1-yl-3-carboxaldehyde)-1,4,4a,5,5a,6,11,12a-octahydro-3,10,12,12a-tetrahydroxy-1,11-dioxo-2-naphthacenecarboxamide]	0.5 µg/mL (≈ 0.985 µM)	0.015 µg/mL (≈ 0.0296 µM)	1 µg/mL (≈ 1.97 µM)	0.015 µg/mL (≈ 0.0296 µM)	2 µg/mL (≈ 3.94 µM)	0.25 µg/mL (≈ 0.493 µM)	0.008 µg/mL (≈ 0.0158 µM)
CN(C)[C@@H]1C(O)=C(C(N)=O)C(=O)[C@@]2(O)C(O)=C3C(=O)c4c(O)ccc(-n5ccc(C=NO)c5)c4C[C@H]3C[C@@H]12 [Example 4, [4S-(4aα,5aαα,12aα)]-4-(Dimethylamino)-7-(3-((hydroxymino)-methyl)-1H-pyrrol-1-yl)-1,4,4a,5,5a,6,11,12a-octahydro-3, 10,12,12a-tetrahydroxy-1,11-dioxo-2-naphthacenecarboxamide]	1 µg/mL (≈ 1.91 µM)	0.03 µg/mL (≈ 0.0574 µM)	2 µg/mL (≈ 3.83 µM)	0.12 µg/mL (≈ 0.23 µM)	2 µg/mL (≈ 3.83 µM)	0.5 µg/mL (≈ 0.957 µM)	0.03 µg/mL (≈ 0.0574 µM)
CN(C)[C@@H]1C(O)=C(C(N)=O)C(=O)[C@@]2(O)C(O)=C3C(=O)c4c(O)ccc(-n5ccc(C#N)c5)c4C[C@H]3C[C@@H]12 [Example 5, [4S-(4aα,5aαα12aα)]-7-(3-Cyanopyrrol-1-yl)-4-(dimethylamino)-1,4,4a,5,5a,6,11,12a-octahydro-3,10,12,12a-tetrahydroxy-1,11-dioxo-2-naphthacenecarboxamide]	0.5 µg/mL (≈ 0.991 µM)	0.015 µg/mL (≈ 0.0297 µM)	0.5 µg/mL (≈ 0.991 µM)	0.015 µg/mL (≈ 0.0297 µM)	2 µg/mL (≈ 3.96 µM)	0.5 µg/mL (≈ 0.991 µM)	0.001 µg/mL (≈ 0.00198 µM)
CON=Cc1ccn(-c2ccc(O)c3c2C[C@H]2C[C@H]4[C@H](N(C)C)C(O)=C(C(N)=O)C(=O)[C@@]4(O)C(O)=C2C3=O)c1 [Example 6, [4S-(4aα,5aα12aα)]-4-(Dimethylamino)-7-(3-((methyloxymino)methyl)-1H-pyrrol-1-yl)-1,4,4a,5,5a,6,11,12a-octahydro-3,10,12,12a-tetrahydroxy-1,11-dioxo-2-naphthacenecarboxamide]	2 µg/mL (≈ 3.73 µM)	0.06 µg/mL (≈ 0.112 µM)	2 µg/mL (≈ 3.73 µM)	0.12 µg/mL (≈ 0.224 µM)	4 µg/mL (≈ 7.46 µM)	0.5 µg/mL (≈ 0.932 µM)	0.004 µg/mL (≈ 0.00746 µM)
